#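 All cell lines were grown in 96-well plates and treated with compound for 48 hours. At the GI50, growth is halved. TGI marks complete inhibition of growth.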
# Key:
# Test in all cases: DTP human tumour cell line panel, 48 h
# [1] = test system: SNB-75 CNS
# [2] = test system: NCI-H23 lung
# [3] = test system: A498 renal
# [4] = test system: UACC-257 melanoma
# [5] = test system: SK-MEL-28 melanoma
# [6] = test system: MCF7 breast
# [7] = test system: NCI-H226 lung
# [8] = test system: IGROV1 ovarian
# [9] = test system: HCC-2998 colon
# [10] = test system: MALME-3M melanoma
# [11] = test system: EKVX NSCLC
# [12] = test system: SR leukemia
# [13] = test system: HCT-15 colon
# [14] = test system: HOP-62 NSCLC
# [15] = test system: ACHN renal
# [16] = test system: SN12C renal
# [17] = test system: A549 NSCLC
# [18] = test system: UO-31 renal
# [19] = test system: LOX IMVI melanoma
# [20] = test system: T-47D breast
# [21] = test system: SF-268 CNS
# [22] = test system: HCT-116 colon
# [23] = test system: SNB-19 CNS
# [24] = test system: UACC-62 melanoma
# [25] = test system: RXF 393 renal
# [26] = test system: SK-MEL-5 melanoma
# [27] = test system: NCI/ADR-RES ovarian
# [28] = test system: OVCAR-5 ovarian
# [29] = test system: PC-3 prostate
# [30] = test system: MDA-MB-435
# [31] = test system: NCI-H460 lung
# [32] = test system: OVCAR-3 ovarian
# [33] = test system: HT29 colon
# [34] = test system: SF-295 CNS
# [35] = test system: K-562 leukemia
# [36] = test system: OVCAR-4 ovarian
# [37] = test system: MOLT-4 leukemia
# [38] = test system: SK-OV-3 ovarian
# [39] = test system: HL-60(TB) leukemia
# [40] = test system: OVCAR-8 ovarian
# [41] = test system: 786-0 renal
# [42] = test system: HS 578T breast
# [43] = test system: MDA-MB-231 breast
# [44] = test system: CCRF-CEM leukemia
# [45] = test system: NCI-H522 lung
# [46] = test system: SF-539 CNS
# [47] = test system: SK-MEL-2 melanoma
# [48] = test system: DU-145 prostate
# [49] = test system: COLO 205 colon
# [50] = test system: SW-620 colon
# [51] = test system: KM12 colon
# [52] = test system: U251 CNS
# [53] = test system: M14 melanoma
# [54] = test system: HOP-92 NSCLC
# [55] = test system: TK-10 renal
# [56] = test system: RPMI-8226 leukemia
# [57] = test system: CAKI-1 renal
smiles,measurement,setting,value
COc1cc(Cn2ccc3c2-c2oncc2CC3)cc(OC)c1,GI50,[1],1900 nM
same,TGI,[1],7.48 µM
same,GI50,[2],3.89 µM
same,TGI,[2],52.9 µM
same,GI50,[3],1160 nM
same,TGI,[3],6.99 µM
same,GI50,[4],6.72 µM
same,TGI,[4],91.1 µM
same,GI50,[5],8.75 µM
same,TGI,[5],> 100 µM
same,GI50,[6],2200 nM
same,TGI,[6],> 100 µM
same,GI50,[7],15.5 µM
same,TGI,[7],> 100 µM
same,GI50,[8],7.44 µM
same,TGI,[8],> 100 µM
same,GI50,[9],7.13 µM
same,TGI,[9],90.1 µM
same,GI50,[10],4.25 µM
same,TGI,[10],37.9 µM
same,GI50,[11],4.3 µM
same,TGI,[11],56.1 µM
same,GI50,[12],851 nM
same,TGI,[12],31.1 µM
same,GI50,[13],3.03 µM
same,TGI,[13],> 100 µM
same,GI50,[14],4.4 µM
same,TGI,[14],> 100 µM
same,GI50,[15],5.54 µM
same,TGI,[15],97.9 µM
same,GI50,[16],6.99 µM
same,TGI,[16],> 100 µM
same,GI50,[17],5.23 µM
same,TGI,[17],> 100 µM
same,GI50,[18],6.09 µM
same,TGI,[18],41.6 µM
same,GI50,[19],4.83 µM
same,TGI,[19],> 100 µM
same,GI50,[20],3.69 µM
same,TGI,[20],60.2 µM
same,GI50,[21],10.1 µM
same,TGI,[21],> 100 µM
same,GI50,[22],3.49 µM
same,TGI,[22],26.6 µM
same,GI50,[23],5.89 µM
same,TGI,[23],> 100 µM
same,GI50,[24],3.68 µM
same,TGI,[24],> 100 µM
same,GI50,[25],5.2 µM
same,TGI,[25],60 µM
same,GI50,[26],2750 nM
same,TGI,[26],10.4 µM
same,GI50,[27],1950 nM
same,TGI,[27],7.24 µM
same,GI50,[28],10.1 µM
same,TGI,[28],> 100 µM
same,GI50,[29],11 µM
same,TGI,[29],> 100 µM
same,GI50,[30],369 nM
same,TGI,[30],4.03 µM
same,GI50,[31],3.11 µM
same,TGI,[31],13.3 µM
same,GI50,[32],2990 nM
same,TGI,[32],9.79 µM
same,GI50,[33],3.17 µM
same,TGI,[33],> 100 µM
same,GI50,[34],3.05 µM
same,TGI,[34],28.8 µM
same,GI50,[35],594 nM
same,TGI,[35],> 100 µM
same,GI50,[36],16.4 µM
same,TGI,[36],> 100 µM
same,GI50,[37],4.09 µM
same,TGI,[37],> 100 µM
same,GI50,[38],4.79 µM
same,TGI,[38],> 100 µM
same,GI50,[39],2220 nM
same,TGI,[39],8.94 µM
same,GI50,[40],4.81 µM
same,TGI,[40],46.7 µM
same,GI50,[41],6.36 µM
same,TGI,[41],37.1 µM
same,GI50,[42],2380 nM
same,TGI,[42],12.2 µM
same,GI50,[43],6.58 µM
same,TGI,[43],81.4 µM
same,GI50,[44],3.74 µM
same,TGI,[44],> 100 µM
same,GI50,[45],3.57 µM
same,TGI,[45],40.4 µM
same,GI50,[46],2800 nM
same,TGI,[46],21.4 µM
same,GI50,[47],8.29 µM
same,TGI,[47],> 100 µM
same,GI50,[48],3.99 µM
same,TGI,[48],> 100 µM
same,GI50,[49],3.7 µM
same,TGI,[49],17.3 µM
same,GI50,[50],2180 nM
same,TGI,[50],> 100 µM
same,GI50,[51],2020 nM
same,TGI,[51],28.5 µM
same,GI50,[52],4.43 µM
same,TGI,[52],69.3 µM
same,GI50,[53],2390 nM
same,TGI,[53],9.45 µM
same,GI50,[54],4.25 µM
same,TGI,[54],47 µM
same,GI50,[55],8.04 µM
same,TGI,[55],> 100 µM
same,GI50,[56],4.98 µM
same,TGI,[56],50.3 µM
same,GI50,[57],2790 nM
same,TGI,[57],39.5 µM

# Reference: PubChem BioAssay (NCI)
